Entries after “also recorded” stand apart in the source; their conditions may differ. Non-standard residues stand in square brackets, D forms with d. Residues, ends and D or L forms follow the SMILES beside them. *: point of attachment. Butyryl = CCCC(=O)*
Assays:
[1] = test system: X. axonopodis pv. vesicatoria strain 206 on tomato plants (cv. Rio grande); test: Bacterial spot of tomato, whole-plant infection assay; type: in vivo; settings: peptide sprayed at 125 μM 24 h before inoculation with 10^8 CFU/mL, severity 13 days after inoculation, two independent experiments, three replicates of three plants, Tukey's test P < 0.05
Experimental: The effect of the peptide conjugates flg15-BP387, flg15-BP475, and PIP1-BP475 and the monomers flg15 and PIP1 to reduce bacterial spot infection, caused by X. axonopodis pv. vesicatoria, was tested in potted tomato plant assays (Fig. 4).
FIG 4 Effect of the peptides on the bacterial spot of tomato plant severity. Two independent experiments were performed. Disease severity was evaluated in tomato plants 13 days after pathogen inoculation. A nontreated control (NTC) and a treatment with copper oxychloride were included as references. Values correspond to the mean disease severity of three replicates of three plants per each treatment, and error bars represent the confidence interval (α = 0.05). […] The photographs show the symptoms observed in nontreated (A) and flg15-BP475-treated (B) plants.
The efficacy of peptides in bacterial spot of tomato suppression was determined using whole-plant infection assays with tomato plants (cv. Rio grande) inoculated with X. axonopodis pv. vesicatoria strain 206. Tomato plants (4 weeks old) were sprayed with a hand sprayer (Herkules; Nuair, Robassomero, Italy) with 6 mL of an aqueous suspension of flg15-BP387, flg15-BP475, PIP1-BP475, flg15, and PIP1 at 125 μM. An NTC was included by spraying plants with water. A treatment with 70% copper oxychloride at 2 g/L (Cuprocol; Syngenta, Spain) was also included as a positive control. After 24 h, treated plants were spray-inoculated until the runoff point (6 mL) with a suspension of X. axonopodis pv. vesicatoria at 10^8 CFU/mL mixed with diatomaceous earth at 1 mg/mL. Plants were incubated under controlled greenhouse conditions (25 ± 2°C, 16 h light; 15 ± 2°C, 8 h dark; 60% relative humidity). The experimental design consisted of three replicates of three plants per treatment. Two independent experiments were performed. Severity of infections was determined per each replicate after 13 days of pathogen inoculation ([71]). A severity index, ranging from 0 to 4 (0, no symptoms; 1, necrosis/lesions up to 25% of the leaf surface; 2, necrosis/lesions on 25 to 50% of the leaf surface; 3, severe necrosis/lesions on 50 to 75% of the leaf surface; and 4, severe necrosis/lesions on >75% of the leaf surface), was determined for each of the leaves (with 4 to 5 leaflets) of a plant, and it was used to calculate the disease severity index per plant according to the formula
where S is the severity of the infections per plant, Si is the severity index for each leaf, and n is the number of leaves measured, which is multiplied by the maximum severity index (i.e., 4). Then, the mean of the severity index of the three plants of each replicate was calculated. The effect of peptide treatments on plant material infection was determined using analysis of variance (ANOVA). […]

tobacco leaves = test: Effect of peptide infiltration on tobacco leaves (phytotoxicity); type: in vivo
Method in brief: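 Phytotoxicity was scored as necrotic lesion diameter 48 h post-infiltration. Each peptide was infiltrated at 50, 150 or 250 μM into fully expanded tobacco leaf mesophyll, on ≥3 leaves from different plants, alongside water and same-molar melittin controls.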

[2] = 100 μL infiltrated into mesophyll, lesion diameter 48 h after infiltration, at least three leaves, ± confidence interval (α = 0.05)

CCCC(=O)NCCCC[C@H](NC(=O)[C@H](CCCCN)NC(=O)[C@H](CC(C)C)NC(=O)[C@@H](NC(=O)[C@H](CCCCN)NC(=O)[C@H](CCCCN)NC(=O)[C@@H](Cc1ccccc1)NC(=O)[C@H](CC(C)C)NC(=O)[C@H](CCCCN)NC(=O)[C@H](CCCCN)NC(=O)[C@H](Cc1c[nH]cn1)NC(=O)[C@@H](NC(=O)[C@H](Cc1c[nH]cn1)NC(=O)[C@@H](NC(=O)CNC(=O)[C@H](Cc1ccc(O)cc1)NC(C)=O)[C@@H](C)CC)[C@@H](C)O)[C@@H](C)CC)C(=O)N[C@@H](CC(C)C)C(N)=O [PIP1-BP475] (Ac-YGIHTHKKL[dF]KKILKK(Butyryl)L-NH2)
Effect on severity of bacterial spot of tomato [1]: showed the same efficacy in reducing the disease as their respective monomers flg15 and PIP1, except for PIP1-BP475 in one of the experiments
Size of the lesions in infiltrated tobacco leaves at 50 μM (tobacco leaves; [2]): 0.47 ± 0.13 cm
Size of the lesions in infiltrated tobacco leaves at 150 μM (tobacco leaves; [2]): 1.03 ± 0.06 cm
Size of the lesions in infiltrated tobacco leaves at 250 μM (tobacco leaves; [2]): 1.17 ± 0.06 cm

CCCC(=O)NCCCC[C@H](NC(=O)[C@H](CCCCN)NC(=O)[C@H](CC(C)C)NC(=O)[C@@H](NC(=O)[C@H](CCCCN)NC(=O)[C@H](CCCCN)NC(=O)[C@@H](Cc1ccccc1)NC(=O)[C@H](CC(C)C)NC(=O)[C@H](CCCCN)NC(=O)[C@H](CCCCN)NC(=O)[C@H](C)NC(=O)[C@@H](NC(=O)[C@H](CCC(N)=O)NC(=O)[C@H](CC(C)C)NC(=O)CNC(=O)[C@H](C)NC(=O)[C@H](C)NC(=O)[C@H](CC(=O)O)NC(=O)[C@H](CC(=O)O)NC(=O)[C@H](CCCCN)NC(=O)[C@H](C)NC(=O)[C@H](CO)NC(=O)[C@H](CC(N)=O)NC(=O)[C@@H](NC(=O)[C@H](CCCNC(=N)N)NC(C)=O)[C@@H](C)CC)[C@@H](C)CC)[C@@H](C)CC)C(=O)N[C@@H](CC(C)C)C(N)=O [flg15-BP475] (Ac-RINSAKDDAAGLQIAKKL[dF]KKILKK(Butyryl)L-NH2)
Effect on severity of bacterial spot of tomato [1]: decreased the severity of the disease compared to treatment with flg15, this reduction being significant in one of the experiments; also recorded: showed the same or more efficacy in reducing disease infection than treatment with copper oxychloride
Size of the lesions in infiltrated tobacco leaves at 50 μM (tobacco leaves; [2]): 0.60 ± 0 cm
Size of the lesions in infiltrated tobacco leaves at 150 μM (tobacco leaves; [2]): 1.20 ± 0 cm
Size of the lesions in infiltrated tobacco leaves at 250 μM (tobacco leaves; [2]): 1.37 ± 0.06 cm

RINSAKDDAAGLQIA-OH [flg15, plant defense elicitor peptide, 15 amino acids of the N-terminal conserved domain of bacterial flagellin; monomer]
Effect on severity of bacterial spot of tomato [1]: significantly reduced the severity of bacterial spot of tomato compared to the nontreated control in both experiments
Size of the lesions in infiltrated tobacco leaves at 50 μM (tobacco leaves; [2]): 0 ± 0 cm
Size of the lesions in infiltrated tobacco leaves at 150 μM (tobacco leaves; [2]): 0 ± 0 cm
Size of the lesions in infiltrated tobacco leaves at 250 μM (tobacco leaves; [2]): 0 ± 0 cm

YGIHTH-NH2 [PIP1, plant defense elicitor peptide identified through combinatorial chemistry; monomer]
Effect on severity of bacterial spot of tomato [1]: only reduced the severity of the disease in one of the experiments
Size of the lesions in infiltrated tobacco leaves at 50 μM (tobacco leaves; in vivo): 0 ± 0 cm
Size of the lesions in infiltrated tobacco leaves at 150 μM (tobacco leaves; in vivo): 0 ± 0 cm
Size of the lesions in infiltrated tobacco leaves at 250 μM (tobacco leaves; in vivo): 0 ± 0 cm

From publication PMC9238401, “Peptide Conjugates Derived from flg15, Pep13, and PIP1 That Are Active against Plant-Pathogenic Bacteria and Trigger Plant Defense Responses” (Applied and Environmental Microbiology, 2022)
